Experimental data: patent US20180360042A1, “Liquid fungicide-containing formulations” (BAYER CROPSCIENCE AKTIENGESELLSCHAFT, priority 2015, published 2018)

Legend:
[1] = Determination of compound (III) content in prothioconazole formulations by HPLC-MS/MS, starting samples; assay type: physicochemical; details: PTZ EC 250 starting sample
Protocol: (§1) Determination of 2-(1-chlorocyclopropyl)-1-(2-chlorophenyl)-3-(1H-1,2,4-triazol-1-yl)propan-2-ol (Compound III) in Formulations
(§2) 2-(1-Chlorocyclopropyl)-1-(2-chlorophenyl)-3-(1H-1,2,4-triazol-1-yl)propan-2-ol is separated from the formulation constituents on a reverse phase column using an isocratic eluent. After MS/MS detection, the quantitative evaluation is conducted by comparing the peak areas with those of the reference object, using an external standard.
(§3) High-pressure liquid chromatograph: HP 1090
(§4) Sample injection: HP 1090 Autoinjector
(§5) Mass spectrometer: Quattro I, Fisons
(§6) Integration and evaluation: MassLynx from Micromass

[2] = Determination of compound (III) content in prothioconazole formulations after storage at 54° C. for 2 weeks; assay type: physicochemical; details: PTZ EC 250 after storage at 54° C. over 2 weeks
Protocol: as §1, §2, §3, §4, §5, §6
Example 9: Comparison of Compound (III) Content of the Formulations from Examples 1 to 4 after Storage at 54° C. for 2 Weeks

[3] = addition of 10% wt/wt Hallcomid vs 0%
[4] = addition of 20% wt/wt Hallcomid vs 0%

C=CCCCCCCCC(=O)N(C)C [Hallcomid®, N,N-dimethyl 9-decenamide]
reduction of the content of compound (III) [1, 3]: 72%
reduction of the content of compound (III) [1, 4]: 76%
reduction of the content of compound (III) ([1]; addition of 54.9% wt/wt Hallcomid vs 0%): 97%
reduction in the content of compound (III) [2, 3]: 75%
reduction in the content of compound (III) [2, 4]: 82%
reduction in the content of compound (III) ([2]; addition of 56.9% wt/wt Hallcomid vs 0%): 98%
